Reference: ChEMBL document CHEMBL3046462, “Synthesis and anti-bacterial activities of some novel pyrazolobenzothiazine-based chalcones and their pyrimidine derivatives” (2012)

What was measured:
Assay type in all cases: functional
Escherichia coli [1] = test: Antibacterial activity against Escherichia coli X580 at 2 mg/ml after overnight incubation by hole plate method; settings: read-out: DIZ
Escherichia coli [2] = test: Antibacterial activity against Escherichia coli X580 at 2 mg/ml after overnight incubation by hole plate method relative to cephalosporin C
Staphylococcus aureus [3] = test: Antibacterial activity against Staphylococcus aureus NCTC 6571 at 2 mg/ml after overnight incubation by hole plate method; settings: read-out: DIZ
Staphylococcus aureus [4] = test: Antibacterial activity against Staphylococcus aureus NCTC 6571 at 2 mg/ml after overnight incubation by hole plate method relative to cephalosporin C

Row | Structure (SMILES) | zone of inhibition at 2000 µg/mL (Escherichia coli [1]) [mm] | fold change (FC) (Escherichia coli [2]) | zone of inhibition at 2000 µg/mL (Staphylococcus aureus [3]) [mm] | fold change (FC) (Staphylococcus aureus [4])
1 | COc1ccc(-c2cc(-c3ccc(-n4nc5c(c4C)N(C)S(=O)(=O)c4ccccc4-5)cc3)nc(N)n2)cc1OC | 14 | 4.13 |  | 
2 | COc1ccc(-c2cc(-c3ccc(-n4nc5c(c4C)N(C)S(=O)(=O)c4ccccc4-5)cc3)nc(N)n2)c(OC)c1OC | 24 | 19.06 |  | 
3 | COc1cc(-c2cc(-c3ccc(-n4nc5c(c4C)N(C)S(=O)(=O)c4ccccc4-5)cc3)nc(N)n2)cc(OC)c1OC | 13 | 3.55 |  | 
4 | Cc1c2c(nn1-c1ccc(-c3cc(-c4ccc([N+](=O)[O-])cc4)nc(N)n3)cc1)-c1ccccc1S(=O)(=O)N2C | 14 | 4.13 |  | 
5 | Cc1c2c(nn1-c1ccc(-c3cc(-c4ccccc4)nc(N)n3)cc1)-c1ccccc1S(=O)(=O)N2C | 14 | 4.13 |  | 
6 | Cc1ccc(-c2cc(-c3ccc(-n4nc5c(c4C)N(C)S(=O)(=O)c4ccccc4-5)cc3)nc(N)n2)cc1 | 14 | 4.13 |  | 
7 | Cc1cc(C)c(-c2cc(-c3ccc(-n4nc5c(c4C)N(C)S(=O)(=O)c4ccccc4-5)cc3)nc(N)n2)c(C)c1 | 15 | 4.81 |  | 
8 | Cc1ccc(C(=O)/C=C/c2ccc(-n3nc4c(c3C)N(C)S(=O)(=O)c3ccccc3-4)cc2)cc1 | 13 | 3.55 |  | 
9 | Cc1cc(C)c(C(=O)/C=C/c2ccc(-n3nc4c(c3C)N(C)S(=O)(=O)c3ccccc3-4)cc2)c(C)c1 | 15 | 4.81 |  | 
10 | Cc1c2c(nn1-c1ccc(-c3cc(-c4ccc(F)cc4)nc(N)n3)cc1)-c1ccccc1S(=O)(=O)N2C | 15 | 4.81 |  | 
11 | Cc1c2c(nn1-c1ccc(-c3cc(-c4ccc(Cl)cc4)nc(N)n3)cc1)-c1ccccc1S(=O)(=O)N2C | 16 | 5.61 |  | 
12 | Cc1c2c(nn1-c1ccc(-c3cc(-c4cccc(Cl)c4)nc(N)n3)cc1)-c1ccccc1S(=O)(=O)N2C | 16 | 5.61 |  | 
13 | Cc1c2c(nn1-c1ccc(-c3cc(-c4ccc(Br)cc4)nc(N)n3)cc1)-c1ccccc1S(=O)(=O)N2C | 19 | 8.87 | 17 | 508
14 | Cc1c2c(nn1-c1ccc(-c3cc(-c4cccc(Br)c4)nc(N)n3)cc1)-c1ccccc1S(=O)(=O)N2C | 14 | 4.13 |  | 
15 | COc1ccccc1-c1cc(-c2ccc(-n3nc4c(c3C)N(C)S(=O)(=O)c3ccccc3-4)cc2)nc(N)n1 | 20 | 10.34 | 22 | 1390
16 | Cc1c2c(nn1-c1ccc(C(=O)/C=C/c3ccc(F)cc3)cc1)-c1ccccc1S(=O)(=O)N2C | 14 | 4.13 |  | 
17 | Cc1c2c(nn1-c1ccc(C(=O)/C=C/c3ccc(Cl)cc3)cc1)-c1ccccc1S(=O)(=O)N2C | 13 | 3.55 |  | 
18 | Cc1c2c(nn1-c1ccc(C(=O)/C=C/c3cccc(Cl)c3)cc1)-c1ccccc1S(=O)(=O)N2C | 15 | 4.81 |  | 
19 | Cc1c2c(nn1-c1ccc(C(=O)/C=C/c3ccc(Cl)cc3Cl)cc1)-c1ccccc1S(=O)(=O)N2C | 16 | 5.61 |  | 
20 | Cc1c2c(nn1-c1ccc(C(=O)/C=C/c3ccc(Br)cc3)cc1)-c1ccccc1S(=O)(=O)N2C | 15 | 4.81 |  | 
21 | Cc1c2c(nn1-c1ccc(C(=O)/C=C/c3cccc(Br)c3)cc1)-c1ccccc1S(=O)(=O)N2C | 17 | 6.53 |  | 
22 | COc1ccccc1/C=C/C(=O)c1ccc(-n2nc3c(c2C)N(C)S(=O)(=O)c2ccccc2-3)cc1 | 16 | 5.61 |  | 
23 | COc1ccc(/C=C/C(=O)c2ccc(-n3nc4c(c3C)N(C)S(=O)(=O)c3ccccc3-4)cc2)cc1OC | 15 | 4.81 |  | 
24 | COc1ccc(/C=C/C(=O)c2ccc(-n3nc4c(c3C)N(C)S(=O)(=O)c3ccccc3-4)cc2)c(OC)c1OC | 14 | 4.13 |  | 
25 | Cc1c2c(nn1-c1ccc(C(=O)/C=C/c3ccc([N+](=O)[O-])cc3)cc1)-c1ccccc1S(=O)(=O)N2C | 15 | 4.81 |  | 
26 | Cc1c2c(nn1-c1ccc(/C=C/C(=O)c3ccc(Cl)cc3)cc1)-c1ccccc1S(=O)(=O)N2C | 14 | 4.13 |  | 
27 | Cc1c2c(nn1-c1ccc(/C=C/C(=O)c3ccc(Br)cc3)cc1)-c1ccccc1S(=O)(=O)N2C | 16 | 5.61 |  | 
28 | COc1ccc(C(=O)/C=C/c2ccc(-n3nc4c(c3C)N(C)S(=O)(=O)c3ccccc3-4)cc2)cc1 | 15 | 4.81 |  | 
